Results taken from ChEMBL document CHEMBL1926527, “Pharmacophore insights into rpoB gene mutations in Mycobacterium tuberculosis rifampicin resistant isolates” (2012).
Values after ≈ are worked out from the molar mass of the structure shown.

Tests used:
Format in all cases: functional
[1] = test system: Mycobacterium tuberculosis; assay: Antimycobacterial activity against Mycobacterium tuberculosis isolate MA03 expressing wild-type rpoB gene by resazurin microtiter assay
[2] = test system: Mycobacterium tuberculosis; assay: Antimycobacterial activity against Mycobacterium tuberculosis isolate 353 expressing wild-type rpoB gene by resazurin microtiter assay
[3] = test system: Mycobacterium tuberculosis; assay: Antimycobacterial activity against Mycobacterium tuberculosis isolate 361 expressing wild-type rpoB gene by resazurin microtiter assay
[4] = test system: Mycobacterium tuberculosis; assay: Antimycobacterial activity against Mycobacterium tuberculosis isolate 359 expressing wild-type rpoB gene by resazurin microtiter assay
[5] = test system: Mycobacterium tuberculosis; assay: Antimycobacterial activity against Mycobacterium tuberculosis H37Rv ATCC 27294 expressing wild-type rpoB gene by resazurin microtiter assay

SMILES | MIC [1] | MIC [2] | MIC [3] | MIC [4] | MIC [5]
CO[C@H]1/C=C/O[C@@]2(C)Oc3c(C)c(O)c4c(c3C2=O)C2=NC3(CCN(CC(C)C)CC3)N(C(C)=O)C2=C(NC(=O)/C(C)=C\C=C\[C@H](C)[C@H](O)[C@@H](C)[C@@H](O)[C@@H](C)[C@H](OC(C)=O)[C@@H]1C)C4=O | < 0.06 µg/mL | 0.12 µg/mL (≈ 0.135 µM) | < 0.06 µg/mL | < 0.06 µg/mL | 0.06 µg/mL (≈ 0.0675 µM)
CO[C@H]1/C=C/O[C@@]2(C)Oc3c(C)c(O)c4c(c3C2=O)C2=NC3(CCN(CC(C)C)CC3)NC2=C(NC(=O)/C(C)=C\C=C\[C@H](C)[C@H](O)[C@@H](C)[C@@H](O)[C@@H](C)[C@H](O)[C@@H]1C)C4=O | < 0.06 µg/mL | > 2 µg/mL | < 0.06 µg/mL | < 0.06 µg/mL | 0.06 µg/mL (≈ 0.0745 µM)
CCCCCCCCCCCCCCCC(=O)N1C2=C3NC(=O)/C(C)=C\C=C\[C@H](C)[C@H](O)[C@@H](C)[C@@H](O)[C@@H](C)[C@H](OC(C)=O)[C@H](C)[C@@H](OC)/C=C/O[C@@]4(C)Oc5c(C)c(O)c(c(c5C4=O)C2=NC12CCN(CC(C)C)CC2)C3=O | < 0.06 µg/mL | > 2 µg/mL | < 0.06 µg/mL | < 0.06 µg/mL | 0.06 µg/mL (≈ 0.0553 µM)
C=CCCCCCCCCC(=O)N1C2=C3NC(=O)/C(C)=C\C=C\[C@H](C)[C@H](O)[C@@H](C)[C@@H](O)[C@@H](C)[C@H](OC(C)=O)[C@H](C)[C@@H](OC)/C=C/O[C@@]4(C)Oc5c(C)c(O)c(c(c5C4=O)C2=NC12CCN(CC(C)C)CC2)C3=O | < 0.06 µg/mL | > 2 µg/mL | < 0.06 µg/mL | < 0.06 µg/mL | 0.06 µg/mL (≈ 0.0592 µM)
CO[C@H]1/C=C/O[C@@]2(C)Oc3c(C)c(O)c4c(c3[C@H]2O)C2=NC3(CCN(CC(C)C)CC3)NC2=C(NC(=O)/C(C)=C\C=C\[C@H](C)[C@H](O)[C@@H](C)[C@@H](O)[C@@H](C)[C@H](O)[C@@H]1C)C4=O | < 0.06 µg/mL | 2 µg/mL (≈ 2.48 µM) | 0.12 µg/mL (≈ 0.149 µM) | 0.25 µg/mL (≈ 0.31 µM) | 0.06 µg/mL (≈ 0.0743 µM)
CO[C@H]1/C=C/O[C@@]2(C)Oc3c(C)c(O)c4c(c3[C@H]2O)C2=NC3(CCN(CC(C)C)CC3)N(C(C)=O)C2=C(NC(=O)/C(C)=C\C=C\[C@H](C)[C@H](O)[C@@H](C)[C@@H](O)[C@@H](C)[C@H](OC(C)=O)[C@@H]1C)C4=O | < 0.06 µg/mL | > 2 µg/mL | < 0.06 µg/mL | < 0.06 µg/mL | 0.06 µg/mL (≈ 0.0673 µM)
CO[C@H]1/C=C/O[C@@]2(C)Oc3c(C)c(O)c4c(c3C2=O)C2=NC3(CCN(CC(C)C)CC3)NC2=C(NC(=O)/C(C)=C\C=C\[C@H](C)[C@H](O)[C@@H](C)[C@@H](O)[C@@H](C)[C@H](OC(C)=O)[C@@H]1C)C4=O [RIFABUTIN] | < 0.06 µg/mL | 0.12 µg/mL (≈ 0.142 µM) | < 0.06 µg/mL | < 0.06 µg/mL | 0.06 µg/mL (≈ 0.0708 µM)
CO[C@H]1/C=C/O[C@@]2(C)Oc3c(C)c(O)c4c(O)c(c(/C=N/N5CCN(C)CC5)c(O)c4c3C2=O)NC(=O)/C(C)=C\C=C\[C@H](C)[C@H](O)[C@@H](C)[C@@H](O)[C@@H](C)[C@H](OC(C)=O)[C@@H]1C [RIFAMPIN] | < 0.06 µg/mL | > 2 µg/mL | < 0.06 µg/mL | 0.12 µg/mL (≈ 0.146 µM) | 0.06 µg/mL (≈ 0.0729 µM)
